Measurements taken from ChEMBL document CHEMBL1201862, “PubChem BioAssay data set” (2004).
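Method: 48-hour compound exposure of cells in 96-well plates, five concentrations, linear interpolation of endpoints. The concentration for 50% growth inhibition is given as GI50.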 Calls of active or inactive are those of the source. Cut-off read from the data, not from the text of the source: active = GI50 up to about 1.1 µM and inactive = higher. Where a SMILES comes first, the peptide text is derived from it. [ ]: non-standard residue; d: D form. Phe(4-NO2) = N[CH](Cc1ccc([N+](=O)[O-])cc1)C(=O)O

Experiments:
Test in all cases: inhibition of tumour cell growth, NCI panel, 48 h
[1] = tested on: ACHN
[2] = tested on: 786-0
[3] = tested on: LOX IMVI
[4] = tested on: KM12
[5] = tested on: SK-MEL-5
[6] = tested on: OVCAR-5
[7] = tested on: NCI/ADR-RES
[8] = tested on: SF-268
[9] = tested on: A498
[10] = tested on: MCF7
[11] = tested on: U-251
[12] = tested on: RXF 393
[13] = tested on: COLO 205
[14] = tested on: SK-MEL-28
[15] = tested on: NCI-H226
[16] = tested on: SR
[17] = tested on: DU-145
[18] = tested on: MDA-MB-435
[19] = tested on: MDA-MB-231

| SMILES | GI50 [1] | GI50 [2] | GI50 [3] | GI50 [4] | GI50 [5] | GI50 [6] | GI50 [7] | GI50 [8] | GI50 [9] | GI50 [10] | GI50 [11] | GI50 [12] | GI50 [13] | GI50 [14] | GI50 [15] | GI50 [16] | GI50 [17] | GI50 [18] | GI50 [19] |
| --- | --- | --- | --- | --- | --- | --- | --- | --- | --- | --- | --- | --- | --- | --- | --- | --- | --- | --- | --- |
| CN(C)CCCn1c2c3ccccc3ccc2c2oc(=O)c3ccccc3c21 | 6.79 µM (inactive) | 2.64 µM (inactive) | 4.63 µM (inactive) | 3.83 µM (inactive) | 9.53 µM (inactive) | 32.6 µM (inactive) | 10.8 µM (inactive) | 5.41 µM (inactive) | 13.3 µM (inactive) | 7.19 µM (inactive) | 3.26 µM (inactive) | 1.33 µM (inactive) | 2.48 µM (inactive) | 7.46 µM (inactive) | > 35.2 µM (inactive) | 0.914 µM (active) |  |  |  |
| Cc1cc(C)cc(Nc2nnc3n2S(=O)(=O)c2cc(C#N)c(Cl)cc2S3)c1 | 3.08 µM (inactive) | 2.22 µM (inactive) | 2.89 µM (inactive) | 1.89 µM (inactive) | 7.55 µM (inactive) | 2.83 µM (inactive) | 2.44 µM (inactive) | 2.2 µM (inactive) | 16.3 µM (inactive) | 1.87 µM (inactive) | 1.96 µM (inactive) | 1.59 µM (inactive) | 10.9 µM (inactive) | 3.21 µM (inactive) | 10.6 µM (inactive) | 0.507 µM (active) | 3.14 µM (inactive) | 3.03 µM (inactive) | 3.13 µM (inactive) |
| CSC1SCC2C(=O)N(C)C3(CC3C)C(=O)OCC(NC(=O)c3nc4ccccc4cc3O)C(=O)NC(C)C(=O)N(C)C1C(=O)N(C)C1(CC1C)C(=O)OCC(NC(=O)c1nc3ccccc3cc1O)C(=O)NC(C)C(=O)N2C (centres undefined) | < 0.0001 µM (active) | < 0.0001 µM (active) | < 0.0001 µM (active) | < 0.0001 µM (active) | < 0.0001 µM (active) | < 0.0001 µM (active) | 0.176 µM (active) | < 0.0001 µM (active) | < 0.0001 µM (active) | < 0.0001 µM (active) | < 0.0001 µM (active) | < 0.0001 µM (active) | < 0.0001 µM (active) | < 0.0001 µM (active) | < 0.0001 µM (active) | < 0.0001 µM (active) | < 0.0001 µM (active) | < 0.0001 µM (active) | < 0.0001 µM (active) |
| C/C(=N\NS(=O)(=O)c1ccc(C)cc1)c1ccccn1 | 26.1 µM (inactive) | 45.3 µM (inactive) | 55.6 µM (inactive) | 43.7 µM (inactive) | 33.4 µM (inactive) | > 100 µM (inactive) | 38 µM (inactive) | 67.3 µM (inactive) | 24.3 µM (inactive) | 53.8 µM (inactive) | 88.5 µM (inactive) | > 100 µM (inactive) | 32.7 µM (inactive) | 98.2 µM (inactive) | 32.9 µM (inactive) | 65 µM (inactive) | > 100 µM (inactive) | > 100 µM (inactive) | > 100 µM (inactive) |
| O=C(N=C1N(c2ccccc2)C(=O)C(=O)N1c1ccccc1)c1ccccc1 | 3.78 µM (inactive) | 3.68 µM (inactive) | 3.78 µM (inactive) | 17.3 µM (inactive) | 14.9 µM (inactive) | 27.5 µM (inactive) | 11 µM (inactive) | 15.1 µM (inactive) | 18.2 µM (inactive) |  | 11.7 µM (inactive) | 3.58 µM (inactive) | 13.9 µM (inactive) | 17.5 µM (inactive) | 12 µM (inactive) | 7.46 µM (inactive) | 6.7 µM (inactive) | 22.9 µM (inactive) | 6.9 µM (inactive) |
| Nc1ccccc1-c1noc(=O)[nH]1 | > 100 µM (inactive) | > 100 µM (inactive) | > 100 µM (inactive) | > 100 µM (inactive) | > 100 µM (inactive) | > 100 µM (inactive) | > 100 µM (inactive) | > 100 µM (inactive) | > 100 µM (inactive) | > 100 µM (inactive) | > 100 µM (inactive) | > 100 µM (inactive) | > 100 µM (inactive) | > 100 µM (inactive) | > 100 µM (inactive) | > 100 µM (inactive) | > 100 µM (inactive) | > 100 µM (inactive) | > 100 µM (inactive) |
| COC(=O)C(=O)C(C(=O)C(=O)Nc1ccc(Cl)cc1Cl)c1nc2ccc(Cl)cc2nc1O (centres undefined) | > 100 µM (inactive) | > 100 µM (inactive) | > 100 µM (inactive) | > 100 µM (inactive) | > 100 µM (inactive) | > 100 µM (inactive) | > 100 µM (inactive) | > 100 µM (inactive) |  | > 100 µM (inactive) | > 100 µM (inactive) |  | > 100 µM (inactive) | > 100 µM (inactive) | 49 µM (inactive) |  | > 100 µM (inactive) | > 100 µM (inactive) | > 100 µM (inactive) |
| Nc1nc(Cl)cc(NCC2(CO)CC(=O)C2)n1 | > 100 µM (inactive) | > 100 µM (inactive) | > 100 µM (inactive) | > 100 µM (inactive) | > 100 µM (inactive) | > 100 µM (inactive) | > 100 µM (inactive) | > 100 µM (inactive) |  | > 100 µM (inactive) | > 100 µM (inactive) | > 100 µM (inactive) | > 100 µM (inactive) | > 100 µM (inactive) | > 100 µM (inactive) | > 100 µM (inactive) | > 100 µM (inactive) | > 100 µM (inactive) | > 100 µM (inactive) |
| Nc1ccc2c(c1)NCCN2 | 6.53 µM (inactive) | > 100 µM (inactive) | 8.05 µM (inactive) | > 100 µM (inactive) | 5.11 µM (inactive) | > 100 µM (inactive) | > 100 µM (inactive) | 56.5 µM (inactive) |  | 4.53 µM (inactive) | 22.9 µM (inactive) | > 100 µM (inactive) | 9.66 µM (inactive) | > 100 µM (inactive) | 7.8 µM (inactive) | 1.69 µM (inactive) | 25.7 µM (inactive) | 82 µM (inactive) | > 100 µM (inactive) |
| NC(=S)N/N=C/C1NCCC2CCCCC21 (centres undefined) | 0.0134 µM (active) | 0.138 µM (active) | 0.221 µM (active) | 0.416 µM (active) | 0.118 µM (active) | 0.796 µM (active) | 0.254 µM (active) | 0.313 µM (active) | 0.17 µM (active) | 0.59 µM (active) | 0.136 µM (active) | 2.43 µM (inactive) | 0.373 µM (active) | 2.38 µM (inactive) | 0.314 µM (active) | 0.137 µM (active) | 0.173 µM (active) | 0.414 µM (active) | 1.12 µM (active) |
| CC(NC(=O)C(Cc1ccc([N+](=O)[O-])cc1)NC(=O)C(N)CCCCN)C(=O)NC(Cc1ccc([N+](=O)[O-])cc1)C(N)=O (centres undefined) (H-K[Phe(4-NO2)]A[Phe(4-NO2)]-NH2; configuration not given here) | 32.8 µM (inactive) | 21.9 µM (inactive) | > 100 µM (inactive) | 23.4 µM (inactive) | 35.8 µM (inactive) | > 100 µM (inactive) | 69 µM (inactive) | > 50 µM (inactive) | 85.5 µM (inactive) | > 40.7 µM (inactive) | > 42.2 µM (inactive) | 39.2 µM (inactive) | > 52.7 µM (inactive) | 75.7 µM (inactive) | 98.9 µM (inactive) |  | 53.5 µM (inactive) | > 52.6 µM (inactive) | 39.6 µM (inactive) |
